{"source": "paper PMC5451472", "about": "“Novel Locally Active Estrogens Accelerate Cutaneous Wound Healing-Part 2” (Scientific Reports, 2017)", "key": {"ERs": {"molecular_target": "T1, ERs (Homo sapiens, UniProt P03372)", "T1 construct": "endogenous in cells; host or cells: MCF-7, clone ERE-Luc B17 (only the luciferase reporter is transfected)", "T1 sequence (P03372 1-595)": "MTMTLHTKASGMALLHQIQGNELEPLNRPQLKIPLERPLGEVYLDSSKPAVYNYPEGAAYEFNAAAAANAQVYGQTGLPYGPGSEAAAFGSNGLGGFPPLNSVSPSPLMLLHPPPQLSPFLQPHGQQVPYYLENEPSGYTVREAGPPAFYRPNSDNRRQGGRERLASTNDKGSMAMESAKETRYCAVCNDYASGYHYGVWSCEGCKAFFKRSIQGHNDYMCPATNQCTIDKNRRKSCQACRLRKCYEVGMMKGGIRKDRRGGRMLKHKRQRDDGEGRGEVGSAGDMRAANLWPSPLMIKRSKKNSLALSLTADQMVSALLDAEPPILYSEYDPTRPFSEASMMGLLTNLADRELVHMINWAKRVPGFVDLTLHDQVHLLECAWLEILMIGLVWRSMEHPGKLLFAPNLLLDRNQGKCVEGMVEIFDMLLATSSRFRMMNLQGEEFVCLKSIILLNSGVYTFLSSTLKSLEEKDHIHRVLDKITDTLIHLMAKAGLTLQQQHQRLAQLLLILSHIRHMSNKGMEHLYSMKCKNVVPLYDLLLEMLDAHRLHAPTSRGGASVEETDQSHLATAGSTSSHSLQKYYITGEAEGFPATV", "experiment": "ER transactivation assay in ERE-Luc B17 cells (luciferase reporter)", "format": "cell-based", "experimental": "The ability of the novel compounds to transcriptionally activate ERs was tested in ERE-Luc B 17 cells, a clone of the breast cancer cell line MCF-7 stably transfected with a reporter constituted by the luciferase gene driven by an estrogen-regulated synthetic promoter previously generated and tested in our laboratories.\nCells were split twice a week by seeding 2 × 10^6 cells in 100 mm diameter Petri (Corning) dishes.\nAfter 24 h cells were rinsed once with PBS before preparing the protein extract for the determination of luciferase content. Each experiment was carried out in duplicate.\nLuciferase enzymatic activity was measured in cells or selected tissue homogenates by a luminometer (Glomax™96 microplate luminometer; Promega) using Promega standard luciferin (Beetle Luciferin Potassium Salt) and expressed as Relative Light Units over 10 sec/μg protein (RLU/μg protein). Proteins concentrations were measured by Bradford.\nAnalysis of transactivation data and calculation of EC50 values were performed by means of sigmoidal dose-response (variable slope) using PRISM5 software (GraphPad Software Inc.)."}, "[1]": {"tested_on": "ER transcriptional activity", "experiment": "Whole body in vivo bioluminescence imaging of ERE-Luc mice, dose-response after s.c. administration", "set-up": "species or system mouse", "conditions": "for Photon Emission, whole body: 6 h vs 0 h, n = 4", "text": "To investigate the activity of 1e and 1f at systemic level, we utilized the ERE-Luc reporter mice. The ERE-luc is a transgenic model obtained by random integration of a luciferase reporter driven by an estrogen-responsive promoter. The ubiquitous, regulated expression of luciferase was obtained by flanking the reporter construct with insulators.\nHere, the first study we carried out was a large-range dose-response analysis to measure whole body luciferase assay after subcutaneous administration of: (1) the vehicle; (2) corn oil as control; (3) the two compounds 1e and 1f at the dosage of 20 μg/kg, 200 μg/kg, 2 mg/kg and 20 mg/kg. The mice (4 for each experimental group) were subjected to in vivo whole body imaging 6 h after the pharmacological treatment. This time was selected on the basis of previous studies showing that the peak of ER transcriptional activation generally occurs at 6–8 h after administration of the estrogenic compounds[16], [17].\nFor the semi-quantitative analysis of in vivo photon emission, animals were injected i.p. with 80 mg/kg of luciferin (Beetle Luciferin Potassium Salt; Promega, Madison, WI, USA) 15 min prior the imaging session. For the imaging, mice were anaesthetized using isofluorane (Isofluorane-Vet; Merial, Lyon, France) and kept under anesthesia during the 5 minutes of the session carried out with a CCD camera: both ventral and dorsal acquisition (Xenogen IVIS Lumina System; Caliper, PerkinElmer company). Photon emission in selected body areas was measured using the Living Image Software (Caliper, PerkinElmer company). The analysis was done in ventral view: whole body, thymus, hepatic area, abdomen, limbs, vagina and in dorsal view in wound area and expressed as photon/second/cm2/steradiant (p/s/cm2/sr)."}}, "note": "pEC50: −log10 of the molar value.", "data": [{"smiles": "CCCCOC(=O)CCC#C[C@]1(O)CC[C@H]2[C@@H]3CCc4cc(O)ccc4[C@H]3CC[C@@]21C", "note": "[1e, 3,17β-Hydroxy-17α-(4′carbobutoxy-1′-butyn-1′-yl)estra-1,3,5-(10)-triene]", "values": [{"measurement": "pEC50", "setting": "ERs; ERE-Luc B17 cells (MCF-7 clone), 24 h, luciferase activity, sigmoidal dose-response, read-out: EC50 (transactivation potency)", "value": 8.89}, {"measurement": "fold induction at 10 µM", "setting": "ERs; ERE-Luc B17 cells, 10^-5 M of compound respect to vehicle", "value": 2.6}, {"measurement": "Photon Emission, whole body", "setting": "[1]; 2 mg/kg s.c.", "value": 3, "unit": "x"}, {"measurement": "Photon Emission, whole body", "setting": "[1]; 20 mg/kg s.c.", "value": 12, "unit": "x"}, {"measurement": "expression of the luciferase reporter", "setting": "[1]; 2 and 20 mg/kg s.c., 6 h", "value": "induced the expression of the luciferase reporter around the area of subcutaneous injection and in some other body areas"}, {"measurement": "effect at systemic level (whole body luciferase)", "setting": "[1]; 20 and 200 μg/kg s.c., 6 h", "value": "did not induce any measurable effect"}]}]}
